Reference: PubChem BioAssay (NCI)
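Results reflect a 48-hour exposure of cells in 96-well plates to compound at five concentrations. At the GI50, growth is halved. TGI: concentration producing complete growth inhibition.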

Key:
Experiment in all cases: DTP human tumour cell line panel, 48 h
BT-549 breast = tested on: BT-549 breast
CAKI-1 renal = tested on: CAKI-1 renal
KM12 colon = tested on: KM12 colon
MDA-MB-231 breast = tested on: MDA-MB-231 breast
SK-MEL-28 melanoma = tested on: SK-MEL-28 melanoma
SN12C renal = tested on: SN12C renal
UACC-257 melanoma = tested on: UACC-257 melanoma

| Compound | TGI (BT-549 breast) | TGI (CAKI-1 renal) | TGI (KM12 colon) | TGI (MDA-MB-231 breast) | TGI (SK-MEL-28 melanoma) | TGI (SN12C renal) | TGI (UACC-257 melanoma) | GI50 (BT-549 breast) | GI50 (CAKI-1 renal) | GI50 (KM12 colon) | GI50 (MDA-MB-231 breast) | GI50 (SK-MEL-28 melanoma) | GI50 (SN12C renal) | GI50 (UACC-257 melanoma) |
| --- | --- | --- | --- | --- | --- | --- | --- | --- | --- | --- | --- | --- | --- | --- |
| COc1cc(Cl)c(CC(=O)c2c[nH]c3ccccc23)cc1OC | > 100 µM | > 100 µM | > 100 µM | > 52.6 µM | > 100 µM | > 100 µM | > 100 µM |  |  |  |  |  |  |  |
| COC1=C(OC)C(=O)C(C/C=C(\C)CC/C=C(\C)CC/C=C(\C)CC/C=C(\C)CC/C=C(\C)CC/C=C(\C)CC/C=C(\C)CC/C=C(\C)CC/C=C(\C)CCC=C(C)C)=C(C)C1=O | > 100 µM | > 100 µM | > 100 µM | > 100 µM | > 100 µM | > 100 µM | > 100 µM | > 100 µM | > 100 µM | > 100 µM | > 100 µM | > 100 µM | > 100 µM | > 100 µM |
| O=c1cc(-c2ccccc2)[nH]c2c1CCCC2 | > 100 µM | > 100 µM | > 100 µM | > 100 µM | > 100 µM | > 100 µM | > 100 µM | 21.5 µM | 0.944 µM | 0.723 µM | 6.67 µM | > 100 µM | 13.4 µM | 67 µM |
| NC1=NC(SCc2ccccc2CCl)c2ncn(Cc3ccccc3CCl)c2N1 (centres undefined) | 3.35 µM | 3.82 µM | 3.6 µM | 11.4 µM | 6.97 µM | 9.85 µM | 3.07 µM | 1.7 µM | 1.77 µM | 1.74 µM | 2.9 µM | 2.28 µM | 2.76 µM | 1.54 µM |
| CN1CCN(C(=O)c2ccc(NC(=O)Nc3ccc(-c4nc(N5CCOCC5)c5cccn5n4)cc3)cc2)CC1 | 0.789 µM | 10.7 µM | 13.7 µM | 11.3 µM | 0.77 µM | 11.8 µM | 0.576 µM | 0.104 µM | 0.542 µM | 0.0787 µM | 0.0431 µM | 0.0465 µM | 0.0331 µM | 0.102 µM |
| CCOC(=O)c1c(-c2ccccc2)[n+](=O)c2cc(F)c(F)cc2n1[O-] | 3.26 µM | 3.12 µM | 9.91 µM |  | 3.34 µM |  | 3.88 µM | 1.6 µM | 1.61 µM | 2.01 µM |  | 1.73 µM |  | 2.09 µM |
| COc1cc(C2c3cc4c(cc3OC(O)C2C)OCO4)cc(OC)c1OC (centres undefined) | > 59.2 µM | 37.4 µM | 27.2 µM | 17.4 µM | > 100 µM | > 65 µM | > 100 µM |  |  |  |  |  |  |  |
| Cc1c(Nc2nccc3cc(CN4CC[C@@H](O)C4)cnc23)cccc1-c1cccc(-c2nc3cc(CN4CC[C@@H](C(=O)O)C4)cc(C#N)c3o2)c1C | 8.68 µM | > 100 µM | 27.6 µM | 26.2 µM | 27.8 µM | > 100 µM | 32.5 µM | 1.75 µM | > 100 µM | 10.7 µM | 7.45 µM | 11.6 µM | 20.1 µM | 14.2 µM |
| O=S(=O)(/N=S(/Nc1ccccc1)C(F)(F)Cl)c1ccccc1 (centres undefined) |  |  | > 100 µM | > 100 µM | > 100 µM | > 100 µM | > 100 µM |  |  |  |  |  |  |  |
